Where two headings read alike, the source gives them in different places.

Series [1] can be described thus: Acute toxicity, minimal motor impairment (ataxia), rats. Format: in vivo. The settings on record: rat, 30 mg/kg. How it is done: Toxicity was measured using the minimal motor impairment test described below.
Animals are monitored for overt signs of impaired neurological or muscular function to assess a compound's toxicity. In mice, the rotorod procedure is used to disclose minimal muscular or neurological impairment. When a mouse is placed on a rotating rod (6 rpm), the animal can maintain its equilibrium for long periods of time. The animal is considered toxic if it falls off the rotating rod three times during a 1 minute period. In rats, minimal motor deficit is indicated by ataxia, which is manifested by an abnormal, uncoordinated gait. Rats used for toxicity evaluation are examined before the test drug is given as individual animals may have peculiarities in gait, equilibrium, and pacing response which must be distinguished from potential effects of the test substance.
Male and female albino CF1 mice (18-25 g, Charles River, Portage, Mich.) and male albino Sprague-Dawley rats (275-300 g, kindling test; 100-150 g all other tests; Charles River, Raleigh, N.C.) were used as experimental animals.

Series [2] has as its target T1, cloned, human D1 receptor (Homo sapiens, UniProt P21728).
T1 construct: expressed in transfected cells
As to the kind of experiment: Radioligand competition binding assay, [3H]SCH23390. From the text: Receptor binding profiles were provided by the National Institute of Mental Health's Psychoactive Drug Screening Program, Contract # N01 MH32004 (NIMH PDSP) The NIMH PDSP is directed by Bryan L. Roth M. D., Ph.D. at the University of North Carolina at Chapel Hill and Project Officer Jamie Driscol at NIMH, Bethesda Md., USA. Protocols for receptor-based assays by the PDSP may be found on the website: http://pdsp.med.unc.edu/pdspw/binding.php and http://pdsp.med.unc.edu/pdspw/function.php (Apr. 30, 2008).
Radioligand competition binding assays were performed as previously described (Rothman, R. B., Baumann, M. H., Savage, J. E., Rauser, L., McBride, Hufeisen, S. J., Roth B. L. Circulation (2000) 102:2836-2841) for Compounds 7 and 16. Briefly, test compounds were dissolved to 10 mM in 100% DMSO, then diluted to the desired concentrations (spanning seven orders of magnitude) in Dopamine Binding Buffer (50 mM NaCl, 50 mM HEPES, 5 mM MgCl2, 0.5 mM EDTA, pH 7.4). Diluted test and reference compounds were added to wells containing radioligand ([^3H]SCH23390, 0.3 nM final concentration) and buffer, then membrane fractions from cells stably expressing cloned, human D1 or D5 receptors were added and binding was allowed to equilibrate at room temperature for 1.5 hours. At equilibrium, reactions were filtered (using a FilterMate 96-well harvester, PerkinElmer) onto GF-A glass fiber filters (Wallac) and allowed to dry. Meltilex scintillant (Wallac) was melted onto the dry filters, and then allowed to cool. Filters were then sealed in plastic bags and counted on a Wallac TriLux microbeta counter.
Raw data (dpm) representing total radioligand binding (i.e., specific+non-specific binding) were plotted as a function of the logarithm of the molar concentration of the competitor (i.e., test or reference compound). Non-linear regression of the normalized (i.e., percent radioligand binding compared to that observed in the absence of test or reference compound) raw data is performed in Prism 4.0 (GraphPad Software) using the built-in three parameter logistic model describing ligand competition binding to radioligand-labeled sites: y=bottom+[(top−bottom)/(1+10^x−logIC50)] where bottom equals the residual radioligand binding measured in the presence of 10 μM reference compound (i.e., non-specific binding) and top equals the total radioligand binding observed in the absence of competitor. The log IC50 (i.e., the log of the ligand concentration that reduces radioligand binding by 50%) is thus estimated from the data and used to obtain the Ki by applying the Cheng-Prusoff approximation: Ki=IC50/(1+[ligand]/KD) where [ligand] equals the assay radioligand concentration and KD equals the affinity constant of the radioligand for the target receptor.

The test system of series [3] is metrazole-induced clonic seizures. The series can be described thus: Subcutaneous Metrazole Seizure Threshold Test (scMET), mice. The settings on record: Mus musculus, sc, mice. Format: in vivo. An outline of the steps:
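CF1 mice dosed with test compound at 30, 100 and 300 mg/kg; Sprague-Dawley rats at 50 mg/kg p.o. At compound TPE, metrazole at CD97 (85 mg/kg in mice) injected s.c. in the neck. Animals observed 30 min; endpoint is a 3-5 s clonic spasm episode.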

Series [4] in a line: Acute toxicity, minimal motor impairment (rotorod), mice. Format: in vivo. The settings on record: mice, rotorod. An outline of the steps: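 Mice placed on a rod rotating at 6 rpm; a compound is scored toxic when the animal falls off three times within 1 min. In rats, minimal motor deficit is scored as ataxia, an abnormal uncoordinated gait.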
A general note: The rotarod test checks motor coordination on a turning rod.

A further series has as its system MES-induced seizures. The series can be described thus: Maximal Electroshock Seizure (MES) test, mice. Format: in vivo. The settings on record: Mus musculus, ip, mice, i.p. An outline of the steps:
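Seizures were induced by a 60 Hz corneal current for 2 s (50 mA in CF1 mice, 150 mA in Sprague-Dawley rats). Mice received 30, 100 or 300 mg/kg i.p. in 0.5% methylcellulose and were tested at several intervals; rats received 30 mg/kg p.o. Protection means abolition of hind-limb tonic extension.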

T1 sequence (P21728 whole entry): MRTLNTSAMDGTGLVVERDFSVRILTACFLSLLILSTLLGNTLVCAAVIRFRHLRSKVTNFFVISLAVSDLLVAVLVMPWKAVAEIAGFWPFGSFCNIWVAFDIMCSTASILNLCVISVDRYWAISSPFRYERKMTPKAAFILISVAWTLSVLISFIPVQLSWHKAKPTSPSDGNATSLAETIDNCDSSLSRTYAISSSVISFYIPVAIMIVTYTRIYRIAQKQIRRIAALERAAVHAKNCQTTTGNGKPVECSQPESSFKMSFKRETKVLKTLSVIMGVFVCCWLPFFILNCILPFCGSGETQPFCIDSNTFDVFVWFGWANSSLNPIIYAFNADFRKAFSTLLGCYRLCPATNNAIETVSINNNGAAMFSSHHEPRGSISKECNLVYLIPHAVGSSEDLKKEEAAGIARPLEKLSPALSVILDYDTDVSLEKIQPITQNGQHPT

For orientation: Ki means a dissociation constant, usually derived from enzyme kinetics or from competition with a known ligand. A lower Ki goes with a stronger hold on the target. As for `CCOC(=O)C1[C@@H]2[C@@H](O)[C@@H]3O[C@H](c4ccc(OC)cc4)OC[C@H]3O[C@H]12` (stereo partly drawn) [Compound 16, ethyl (2R,4aR,5aS,6aR,7R,7aS)-7-hydroxy-2-(4-methoxyphenyl)hexahydro-4H-cyclopropa[5,6]pyrano[3,2-d][1,3]dioxine-6-carboxylate], the “TOX 30 4 h (animals toxic/tested)” value in series [1] was 0/4; in series [4] (30 mg/kg, 4 h), 0/2. For the same molecule, the Ki in series [2] (D1 dopamine receptor, [3H]SCH23390 0.3 nM, Cheng-Prusoff) turned out to be 4.74 µM. Besides, the “inhibition of the D1 dopamine receptor” value in series [2] (radioligand competition binding) was “significant inhibition”. Further, the responders at 30 mg/kg came to 0% in series [3] (0.4 h, read-out: scMET 30 0.4 h (animals protected/tested)); 0% in series [3] (0.5 h, read-out: scMET 30 0.5 h (animals protected/tested)); 0% with MES-induced seizures (0.5 h, read-out: MES 30 0.5 h (animals protected/tested)); 0% in the series with MES-induced seizures (4 h, read-out: MES 30 4 h (animals protected/tested)). Besides, the responders at 100 mg/kg was determined as 0% in series [3] (0.4 h, read-out: scMET 100 0.4 h (animals protected/tested)); 0% in series [3] (0.5 h, read-out: scMET 100 0.5 h (animals protected/tested)); 0% with MES-induced seizures (0.5 h, read-out: MES 100 0.5 h (animals protected/tested)); 0% in the series with MES-induced seizures (4 h, read-out: MES 100 4 h (animals protected/tested)). The responders at 300 mg/kg turned out to be 0% in series [3] (0.4 h, read-out: scMET 300 0.4 h (animals protected/tested)); 0% in series [3] (0.5 h, read-out: scMET 300 0.5 h (animals protected/tested)); 0% with MES-induced seizures (0.5 h, read-out: MES 300 0.5 h (animals protected/tested)); 0% with MES-induced seizures (4 h, read-out: MES 300 4 h (animals protected/tested)). Moreover, the “TOX 30 0.5 h (animals toxic/tested)” value in series [4] (30 mg/kg, 0.5 h) is 0/4. For the same molecule, the “TOX 100 0.5 h (animals toxic/tested)” value in series [4] (100 mg/kg, 0.5 h) is reported as 2/8. Besides, the “TOX 100 4 h (animals toxic/tested)” value in series [4] (100 mg/kg, 4 h) was 0/4. Also, the “TOX 300 0.5 h (animals toxic/tested)” value in series [4] (300 mg/kg, 0.5 h) was 3/4. Moreover, the “TOX 300 4 h (animals toxic/tested)” value in series [4] (300 mg/kg, 4 h) is given as 1/2.

The values are drawn from patent publication US8222218B2, “Cyclopropanated carbohydrates” (Seton Hall University, priority 2008, dated 2012).
